Source: US4397853A, “Isoxazole derivatives” (Yoshitomi Pharmaceutical Industries Ltd., priority 1979, dated 1983)
Read-outs that look alike come from different tables or passages of the source.

System: male dd-mice
Assay: anti-apomorphine activity in mice (inhibition of motor activity after apomorphine, animex)
Assay type: in vivo
Conditions: Mus musculus, po, read-out: Anti-apomorphine activity ED50 (dose which inhibited the motor activity by 50% as compared with the control)
Protocol: Groups of 5 male dd-mice (20-25 g body weight) each were used. Apomorphine hydrochloride (0.5 mg/kg) was subcutaneously administered 60 minutes after oral administration of test compound. Immediately after the apomorphine treatment, motor activity was determined for 20 minutes by animex. For the control groups, 0.5% methylcellulose solution was administered instead of test compound. The ED50, a dose which inhibited the motor activity by 50% as compared with the control, was determined.

[1] = male dd-mice, p.o., 60 min before apomorphine hydrochloride 0.5 mg/kg s.c., motor activity for 20 min by animex

Row | SMILES | ED50 [mg/kg] | ED50 [1] [mg/kg]
1 | OC1(c2ccc(Cl)cc2)CCN(CC2=NOC(c3ccc(F)cc3)C2)CC1 (stereo not shown) [C, 1-[5-(4-Fluorophenyl)-4,5-dihydroisoxazol-3-ylmethyl]-4-(4-chlorophenyl)-4-hydroxypiperidine] | 3.4 | –
2 | O=c1[nH]c2ccccc2n1C1CCN(CC2=NOC(c3ccc(F)cc3)C2)CC1 (stereo not shown) [A, 1-[5-(4-Fluorophenyl)-4,5-dihydroisoxazol-3-ylmethyl]-4-(2-oxo-1-benzimidazolinyl)piperidine] | – | 1.7
3 | CN1CCN(C2=Nc3cc(Cl)ccc3Nc3ccccc32)CC1 [Clozapine, reference compound] | – | 10
4 | O=c1[nH]c2cc(F)ccc2n1C1CCN(CC2=NOC(c3ccc(F)cc3)C2)CC1 (stereo not shown) [B, 1-[5-(4-Fluorophenyl)-4,5-dihydroisoxazol-3-ylmethyl]-4-(5-fluoro-2-oxo-1-benzimidazolinyl)piperidine] | – | 2.1
